The values below come from ChEMBL document CHEMBL4422616, “The P-glycoprotein inhibitor diltiazem-like 8-(4-chlorophenyl)-5-methyl-8-[(2Z)-pent-2-en-1-yloxy]-8H-[1,2,4]oxadiazolo[3,4-c][1,4]thiazin-3-one inhibits esterase activity and H3 histone acetylation” (Eur J Med Chem, 2019).

What is called inhibition is the change of the read-out against control, counted positive when it falls.

Active and inactive are the calls of the source. The calls are words filed in the database; no cut-off is given here.

Series [1] concerns HepG2. The series is described as follows: Inhibition of esterase in human hepG2 cells at 100 uM after 1 hr by calcein-AM dye-based fluorescence assay relative to control. Type of series: cell-based.
Series [2] deals with HepG2. Briefly: Cytotoxicity against human HepG2 cells assessed as reduction in cell viability up to 100 uM after 48 hrs by MTT assay. Format: cell-based. The following applies: hepg2, 48 h. For orientation: Formazan colour is commonly taken as a measure of viable cells.
Series [3] has as its system HepG2. The series is described as follows: Inhibition of HAT in human HepG2 cells assessed as decrease in histone H3 acetylation at Lys27 residues at 100 uM incubated for 48 hrs by Western blot analysis relative to control. Type of series: cell-based. In general terms: In western blotting, separated proteins are transferred to a membrane and probed.
In series [4] the test system is HepG2. Briefly: Cytotoxicity against human HepG2 cells assessed as morphological alteration up to 100 uM after 48 hrs by MTT assay. Type of series: cell-based. The settings on record: hepg2, 48 h.
In series [5] the test system is HEK293. Briefly: Cytotoxicity against HEK293 cells assessed as morphological alteration up to 100 uM after 48 hrs by MTT assay. Format: cell-based. The settings on record: human, hek293, 48 h.
For series [6], the target named is Acetylcholinesterase (Homo sapiens) (UniProt P22303). Briefly: Inhibition of AChE (unknown origin) using acetylthiocholine chloride as substrate measured for 10 mins.
Sequence of Acetylcholinesterase (Homo sapiens) (P22303 whole entry): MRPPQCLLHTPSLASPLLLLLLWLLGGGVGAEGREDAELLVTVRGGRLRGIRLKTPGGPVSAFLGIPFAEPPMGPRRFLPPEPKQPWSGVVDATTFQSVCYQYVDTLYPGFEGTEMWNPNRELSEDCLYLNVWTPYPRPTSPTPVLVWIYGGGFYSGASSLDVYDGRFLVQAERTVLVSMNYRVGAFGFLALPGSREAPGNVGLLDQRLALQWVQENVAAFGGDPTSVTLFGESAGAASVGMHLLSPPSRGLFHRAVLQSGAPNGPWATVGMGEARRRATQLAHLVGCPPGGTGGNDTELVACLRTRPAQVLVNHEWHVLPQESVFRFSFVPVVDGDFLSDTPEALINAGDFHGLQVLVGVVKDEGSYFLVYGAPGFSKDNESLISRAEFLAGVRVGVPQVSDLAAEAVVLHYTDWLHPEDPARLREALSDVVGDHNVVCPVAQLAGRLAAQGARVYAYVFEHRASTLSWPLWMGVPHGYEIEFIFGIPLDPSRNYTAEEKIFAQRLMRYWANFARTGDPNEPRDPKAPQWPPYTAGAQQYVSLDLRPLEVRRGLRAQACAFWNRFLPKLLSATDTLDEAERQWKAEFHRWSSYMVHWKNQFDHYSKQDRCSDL
Series [7] has as its system HEK293. The series is described as follows: Inhibition of HAT in HEK293 cells assessed as decrease in histone H3 acetylation at Lys27 residues at 100 uM incubated for 48 hrs by Western blot analysis relative to control. Type of series: cell-based. The settings on record: Homo sapiens.
In series [8] the target is Acetylcholinesterase (Homo sapiens) (UniProt P22303). The series is described as follows: Inhibition of AChE (unknown origin) assessed as residual activity at 50 uM using acetylthiocholine chloride as substrate measured for 10 mins (reference value: 100 +/- 1.2%).
In series [9] the test system is HEK293. The series is described as follows: Cytotoxicity against HEK293 cells assessed as reduction in cell viability at 500 uM after 24 to 48 hrs by MTT assay relative to control. Format: cell-based. The following applies: human, hek293, 500 µM.
In series [10] the target is ATP-binding cassette sub-family C member 6 (Homo sapiens, UniProt O95255). The series is described as follows: Inhibition of ABCC6 (unknown origin) expressed in HEK293 cells assessed as increase in doxorubicin efflux at 100 uM after 30 mins by fluorescence assay. Format: cell-based. The settings on record: hek293, 0.5 h.
Sequence of ATP-binding cassette sub-family C member 6 (O95255 whole entry): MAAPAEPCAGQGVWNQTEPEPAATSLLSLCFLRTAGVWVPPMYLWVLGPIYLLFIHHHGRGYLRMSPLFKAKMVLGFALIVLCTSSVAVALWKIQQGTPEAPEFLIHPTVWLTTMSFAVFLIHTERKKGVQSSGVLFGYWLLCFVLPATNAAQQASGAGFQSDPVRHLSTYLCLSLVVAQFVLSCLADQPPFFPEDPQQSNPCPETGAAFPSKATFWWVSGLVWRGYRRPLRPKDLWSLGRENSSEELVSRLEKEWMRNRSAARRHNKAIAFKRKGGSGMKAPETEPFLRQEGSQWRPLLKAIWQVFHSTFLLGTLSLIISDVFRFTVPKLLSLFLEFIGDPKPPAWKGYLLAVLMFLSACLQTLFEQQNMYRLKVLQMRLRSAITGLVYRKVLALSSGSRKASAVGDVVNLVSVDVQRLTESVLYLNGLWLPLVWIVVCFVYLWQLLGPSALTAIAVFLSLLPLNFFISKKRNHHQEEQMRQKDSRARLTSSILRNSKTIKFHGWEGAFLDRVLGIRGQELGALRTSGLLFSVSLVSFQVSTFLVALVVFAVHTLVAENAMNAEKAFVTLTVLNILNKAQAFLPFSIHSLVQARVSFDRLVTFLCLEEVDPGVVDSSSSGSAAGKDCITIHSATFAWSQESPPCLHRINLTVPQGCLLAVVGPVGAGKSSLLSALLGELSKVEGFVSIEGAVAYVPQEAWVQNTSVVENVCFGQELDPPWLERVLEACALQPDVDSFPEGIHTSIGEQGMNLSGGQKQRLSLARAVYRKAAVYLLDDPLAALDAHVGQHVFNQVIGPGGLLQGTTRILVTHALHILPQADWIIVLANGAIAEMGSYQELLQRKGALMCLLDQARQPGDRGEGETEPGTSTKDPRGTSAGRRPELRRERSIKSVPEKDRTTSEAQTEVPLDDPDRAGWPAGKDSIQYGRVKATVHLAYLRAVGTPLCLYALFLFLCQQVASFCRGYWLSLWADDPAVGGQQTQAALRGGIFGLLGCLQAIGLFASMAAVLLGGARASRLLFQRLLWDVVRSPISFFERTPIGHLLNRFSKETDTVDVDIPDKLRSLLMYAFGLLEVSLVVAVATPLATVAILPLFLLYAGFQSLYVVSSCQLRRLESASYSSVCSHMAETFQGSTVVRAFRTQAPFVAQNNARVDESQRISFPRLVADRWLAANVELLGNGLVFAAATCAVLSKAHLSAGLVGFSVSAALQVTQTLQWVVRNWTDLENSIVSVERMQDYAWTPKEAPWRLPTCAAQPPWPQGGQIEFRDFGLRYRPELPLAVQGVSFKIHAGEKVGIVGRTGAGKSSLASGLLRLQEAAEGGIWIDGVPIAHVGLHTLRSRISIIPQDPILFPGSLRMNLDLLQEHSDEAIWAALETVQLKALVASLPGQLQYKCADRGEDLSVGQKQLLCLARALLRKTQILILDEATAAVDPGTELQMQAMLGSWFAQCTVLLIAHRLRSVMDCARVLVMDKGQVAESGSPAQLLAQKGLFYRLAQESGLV
In series [11] the test system is HepG2. The series is described as follows: Cytotoxicity against human HepG2 cells assessed as reduction in cell viability at 500 uM after 24 to 48 hrs by MTT assay relative to control. Format: cell-based. The following applies: hepg2, 500 µM.
The subject of series [12] is HEK293. Briefly: Inhibition of esterase in HEK293 cells at 100 uM after 1 hr by calcein-AM dye-based fluorescence assay relative to control. Format: cell-based. The following applies: Homo sapiens.
The test system of series [13] is HepG2. The series is described as follows: Inhibition of HAT in human HepG2 cells assessed as decrease in histone H3 acetylation at Lys27 residues at 100 uM incubated for 48 hrs in presence of TSA by Western blot analysis. Type of series: cell-based.
Series [14] relates to HEK293. The series is described as follows: Inhibition of HAT in HEK293 cells assessed as decrease in histone H3 acetylation at Lys27 residues at 100 uM incubated for 48 hrs in presence of TSA by Western blot analysis. Format: cell-based. The settings on record: Homo sapiens.
In series [15] the target is Acetylcholinesterase (Homo sapiens) (UniProt P22303). The series is described as follows: Inhibition of AChE (unknown origin) assessed as residual activity at 100 uM using acetylthiocholine chloride as substrate measured for 10 mins (reference value: 100 +/- 1.2%).
The target is the same in series [16]. Briefly: Inhibition of AChE (unknown origin) assessed as residual activity at 10 uM using acetylthiocholine chloride as substrate measured for 10 mins (reference value: 100 +/- 1.2%).
Series [17] has as its system HEK293. Briefly: Cytotoxicity against HEK293 cells assessed as reduction in cell viability up to 100 uM after 48 hrs by MTT assay. Type of series: cell-based. The settings on record: human, hek293, 48 h.

For `CC/C=C\COC1(c2ccc(Cl)cc2)SC=C(C)n2c1noc2=O` (configuration not stated), the inhibition in the series with HepG2 [1] is 50%; with HepG2 [3], 56%; in series [6], “Dose-dependent effect”; with HEK293 [7] it was 80%; in the series with HEK293 [12], 60%. The Activity result with HepG2 [2] was “Non-Toxic”; with HepG2 [4], “Non-Toxic”; in the series with HEK293 [5] it was “Non-Toxic”; in series [8] it was 61%; with HEK293 [9] it was 50%; with HepG2 [11] it was 50%. Further, the Activity was 56% in series [15], 80% in series [16] and “Non-Toxic” in the series on HEK293 [17]. For the same molecule, in series [10], the “inhibition (INH)” value is listed as “Active”. The inhibition result with HepG2 [13] and with HEK293 [14] was “Active” each time.
